Drawing on ChEMBL document CHEMBL3431459, “Roche carnitine palmitoyltransferase modulator screening data (supplementary data associated with the publication CHEMBL2216752)”, this text covers IC50 for 14 compounds.

The term IC50 denotes the concentration that inhibits the measured activity by half. Low readings indicate greater potency in that assay, high ones weaker potency in that assay.

For assay [1], the target named is T1, Carnitine O-palmitoyltransferase 2, mitochondrial (Homo sapiens, UniProt P23786).
T1 sequence (P23786 whole entry): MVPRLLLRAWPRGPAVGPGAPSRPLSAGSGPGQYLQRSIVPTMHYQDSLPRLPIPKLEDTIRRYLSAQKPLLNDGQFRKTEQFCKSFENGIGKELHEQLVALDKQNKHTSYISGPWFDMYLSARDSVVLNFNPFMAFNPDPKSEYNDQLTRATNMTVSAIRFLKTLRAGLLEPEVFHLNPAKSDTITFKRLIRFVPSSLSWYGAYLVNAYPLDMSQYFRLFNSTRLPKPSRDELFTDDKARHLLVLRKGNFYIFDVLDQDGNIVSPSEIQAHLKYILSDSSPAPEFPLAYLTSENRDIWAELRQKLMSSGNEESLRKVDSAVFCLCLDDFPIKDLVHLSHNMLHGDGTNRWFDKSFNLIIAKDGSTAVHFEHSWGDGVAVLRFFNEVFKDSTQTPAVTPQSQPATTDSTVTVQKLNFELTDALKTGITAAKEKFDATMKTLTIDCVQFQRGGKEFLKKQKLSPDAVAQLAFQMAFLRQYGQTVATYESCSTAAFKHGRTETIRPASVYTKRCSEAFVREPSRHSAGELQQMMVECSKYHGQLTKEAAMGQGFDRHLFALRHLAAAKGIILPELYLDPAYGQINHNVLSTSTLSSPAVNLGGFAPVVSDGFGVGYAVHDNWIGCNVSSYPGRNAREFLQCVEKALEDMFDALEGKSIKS
In words: (§1) SUPPLEMENTARY: Inhibition of Carnitine palmitoyltransferase 2.

The target in assay [2] is T2, Carnitine O-palmitoyltransferase 2, mitochondrial (Rattus norvegicus, UniProt P18886).
T2 sequence (P18886 whole entry): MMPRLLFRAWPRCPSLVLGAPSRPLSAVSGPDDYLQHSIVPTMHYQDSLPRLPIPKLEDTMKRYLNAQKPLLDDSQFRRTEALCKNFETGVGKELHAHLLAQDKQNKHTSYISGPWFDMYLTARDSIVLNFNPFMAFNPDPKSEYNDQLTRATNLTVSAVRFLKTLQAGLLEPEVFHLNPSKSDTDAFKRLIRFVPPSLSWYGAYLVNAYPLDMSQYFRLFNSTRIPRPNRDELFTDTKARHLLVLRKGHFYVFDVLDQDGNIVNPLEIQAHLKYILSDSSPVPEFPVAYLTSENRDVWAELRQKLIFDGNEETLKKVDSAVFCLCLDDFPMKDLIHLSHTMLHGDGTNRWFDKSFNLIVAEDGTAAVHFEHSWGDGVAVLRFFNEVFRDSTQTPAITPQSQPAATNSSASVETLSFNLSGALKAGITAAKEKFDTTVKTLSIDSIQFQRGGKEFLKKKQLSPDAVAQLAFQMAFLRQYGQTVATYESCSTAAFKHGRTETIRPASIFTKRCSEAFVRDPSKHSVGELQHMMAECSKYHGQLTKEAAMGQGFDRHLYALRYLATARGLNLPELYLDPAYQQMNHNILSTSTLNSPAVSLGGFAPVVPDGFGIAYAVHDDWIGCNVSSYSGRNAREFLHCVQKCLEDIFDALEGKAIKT
Described as §1.

For assay [3], the target named is T3, Carnitine O-palmitoyltransferase 1, liver isoform (Rattus norvegicus, UniProt P32198).
T3 sequence (P32198 whole entry): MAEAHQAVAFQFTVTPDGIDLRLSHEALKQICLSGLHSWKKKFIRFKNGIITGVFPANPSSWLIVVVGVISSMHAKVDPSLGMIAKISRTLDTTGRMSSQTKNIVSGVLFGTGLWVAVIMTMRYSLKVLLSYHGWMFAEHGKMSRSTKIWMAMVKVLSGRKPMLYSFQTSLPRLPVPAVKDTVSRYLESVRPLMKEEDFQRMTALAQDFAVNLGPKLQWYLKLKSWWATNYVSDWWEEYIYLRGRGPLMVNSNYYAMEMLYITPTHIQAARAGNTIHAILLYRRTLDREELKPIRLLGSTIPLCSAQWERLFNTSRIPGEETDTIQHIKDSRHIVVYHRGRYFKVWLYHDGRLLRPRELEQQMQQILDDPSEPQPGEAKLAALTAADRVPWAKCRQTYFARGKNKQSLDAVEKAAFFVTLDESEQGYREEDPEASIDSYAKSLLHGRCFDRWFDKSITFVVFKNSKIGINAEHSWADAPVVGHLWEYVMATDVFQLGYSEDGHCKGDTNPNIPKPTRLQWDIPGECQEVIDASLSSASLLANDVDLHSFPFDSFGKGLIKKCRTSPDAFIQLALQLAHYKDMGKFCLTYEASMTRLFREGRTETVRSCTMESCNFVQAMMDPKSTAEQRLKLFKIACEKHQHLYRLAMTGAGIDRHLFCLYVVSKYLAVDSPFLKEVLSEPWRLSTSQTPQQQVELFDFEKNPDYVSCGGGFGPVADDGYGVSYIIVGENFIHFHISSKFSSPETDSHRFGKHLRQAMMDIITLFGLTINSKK
The experiment in a line: (§2) SUPPLEMENTARY: Inhibition of Carnitine palmitoyltransferase 1, liver isoform.

The target in assay [4] is T4, Carnitine O-palmitoyltransferase 1, liver isoform (Homo sapiens, UniProt P50416).
T4 sequence (P50416 whole entry): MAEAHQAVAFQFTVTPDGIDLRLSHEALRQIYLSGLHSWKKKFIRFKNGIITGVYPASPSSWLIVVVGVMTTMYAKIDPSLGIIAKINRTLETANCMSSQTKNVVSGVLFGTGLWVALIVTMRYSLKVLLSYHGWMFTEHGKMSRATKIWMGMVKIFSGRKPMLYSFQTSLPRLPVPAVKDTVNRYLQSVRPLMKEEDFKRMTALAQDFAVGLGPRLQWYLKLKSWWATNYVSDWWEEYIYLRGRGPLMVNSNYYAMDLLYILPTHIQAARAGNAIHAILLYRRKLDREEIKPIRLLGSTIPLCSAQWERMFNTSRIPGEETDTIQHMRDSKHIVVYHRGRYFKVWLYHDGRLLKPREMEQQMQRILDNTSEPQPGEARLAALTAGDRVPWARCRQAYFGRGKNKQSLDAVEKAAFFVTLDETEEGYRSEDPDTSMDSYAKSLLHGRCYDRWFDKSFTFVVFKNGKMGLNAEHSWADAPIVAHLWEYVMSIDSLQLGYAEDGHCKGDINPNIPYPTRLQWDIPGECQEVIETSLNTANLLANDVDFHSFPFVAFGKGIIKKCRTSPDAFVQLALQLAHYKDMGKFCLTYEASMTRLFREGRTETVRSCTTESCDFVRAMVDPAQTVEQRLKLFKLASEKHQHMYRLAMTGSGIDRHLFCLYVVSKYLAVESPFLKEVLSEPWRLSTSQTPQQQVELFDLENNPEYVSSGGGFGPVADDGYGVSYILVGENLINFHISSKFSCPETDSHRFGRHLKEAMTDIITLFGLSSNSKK
Described as §2.

For assay [5], the target named is T5, Carnitine O-palmitoyltransferase 1, muscle isoform (Homo sapiens, UniProt Q92523).
T5 sequence (Q92523 whole entry): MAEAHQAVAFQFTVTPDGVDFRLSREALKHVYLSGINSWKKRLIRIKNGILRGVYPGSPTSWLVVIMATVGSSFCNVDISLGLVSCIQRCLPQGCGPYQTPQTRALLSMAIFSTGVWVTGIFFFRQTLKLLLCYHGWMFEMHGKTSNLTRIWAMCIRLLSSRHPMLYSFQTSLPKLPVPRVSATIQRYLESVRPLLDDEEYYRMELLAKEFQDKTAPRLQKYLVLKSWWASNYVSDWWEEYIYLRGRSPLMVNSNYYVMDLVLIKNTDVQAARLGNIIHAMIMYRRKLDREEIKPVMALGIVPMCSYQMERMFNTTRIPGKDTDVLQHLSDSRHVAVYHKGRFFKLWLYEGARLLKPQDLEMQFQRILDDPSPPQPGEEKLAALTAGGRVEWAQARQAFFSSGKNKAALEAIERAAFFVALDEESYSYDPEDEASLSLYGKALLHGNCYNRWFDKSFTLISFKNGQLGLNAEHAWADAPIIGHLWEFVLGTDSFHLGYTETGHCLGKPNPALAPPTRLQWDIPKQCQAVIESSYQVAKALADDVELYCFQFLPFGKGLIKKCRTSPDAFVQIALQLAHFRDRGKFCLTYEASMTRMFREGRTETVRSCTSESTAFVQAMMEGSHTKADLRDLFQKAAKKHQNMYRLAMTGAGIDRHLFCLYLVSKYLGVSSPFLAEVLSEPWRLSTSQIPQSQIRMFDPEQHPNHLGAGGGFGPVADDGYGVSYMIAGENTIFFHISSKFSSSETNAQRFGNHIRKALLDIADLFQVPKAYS
In words: SUPPLEMENTARY: Inhibition of Carnitine palmitoyltransferase 1, muscle isoform. On the set-up: species or system Muscle tissue.

Regarding `O=C([C@H]1CCCCN1C(=O)COc1ccccc1)N1Cc2ccc(OC3CCOCC3)cc2C1`, the IC50 in assay [1] was 193 nM; in assay [2], 643 nM; in assay [3], 72.7 nM; in assay [4] it was 103 nM; in assay [5], over 100000 nM.

For the compound `COc1ccc(Cl)cc1S(=O)(=O)c1n[nH]c2ccc(C(=O)Nc3ccccc3)cc12`, the IC50 in assay [1] was over 100000 nM; in assay [2] it was over 100000 nM; in assay [3], 102 nM; in assay [4], 172 nM; in assay [5] it was over 100000 nM.

For the compound `COc1ccc(C)cc1S(=O)(=O)N1CCOc2ccc(C(=O)Nc3ccc(C(=O)O)c(F)c3)cc21`, the IC50 came to 2580 nM in assay [1]; 15400 nM in assay [2]; 102 nM in assay [3]; 224 nM in assay [4]; 2150 nM in assay [5].

For `O=C(COc1ccccc1)N1CCCC[C@@H]1c1nnn(-c2ccccc2)n1`, the half-maximal inhibitory concentration (IC50) in assay [1] is over 100000 nM; in assay [2], over 100000 nM; in assay [3], 76.9 nM; in assay [4] it was 156 nM; in assay [5] it was over 100000 nM.

For `COc1ccc(-n2nnc([C@H]3CCCCN3C(=O)COc3ccccc3)n2)cc1`, the IC50 in assay [1] is 24200 nM; in assay [2], over 100000 nM; in assay [3] it was 103 nM; in assay [4], 159 nM; in assay [5], over 100000 nM.

On to `COc1ccc(Cl)cc1S(=O)(=O)c1c2cc(C(=O)Nc3ccccc3)ccc2nn1C`, for which the IC50 in assay [1] was over 100000 nM; in assay [2] it was over 100000 nM; in assay [3], 381 nM; in assay [4] it was 162 nM; in assay [5] it was over 100000 nM.

For the compound `COc1ccc(Cl)cc1S(=O)(=O)N1C[C@H](C(=O)O)Oc2ccc(C(=O)Nc3ccccc3)cc21`, the IC50 is over 100000 nM in assay [1]; over 100000 nM in assay [2]; 15.3 nM in assay [3]; 46.6 nM in assay [4]; 31900 nM in assay [5].

As to `COc1ccc(Cl)cc1S(=O)(=O)N1CCCc2ccc(NC(=O)c3ccc(CC(=O)O)cc3)cc21`, the 50% inhibitory concentration (IC50) in assay [1] is over 100000 nM; in assay [2], over 100000 nM; in assay [3], 658 nM; in assay [4], 388 nM; in assay [5] it was 1820 nM.

In the case of `COc1ccc(Cl)cc1S(=O)(=O)c1nn(C)c2ccc(C(=O)Nc3ccc(C(=O)O)c(Cl)c3)cc12`, the IC50 in assay [1] amounted to 21300 nM; in assay [2], 35100 nM; in assay [3] it was 15.8 nM; in assay [4] it was 41.6 nM; in assay [5], 1680 nM.

For the compound `COCCN(c1cc(C(=O)Nc2ccc(CC(=O)O)cc2)cc2c1OCO2)S(=O)(=O)c1cc(Cl)ccc1OC`, the IC50 in assay [1] is over 100000 nM; in assay [2], over 100000 nM; in assay [3] it was 453 nM; in assay [4], 622 nM; in assay [5], 1530 nM.

Consider `O=C(COc1ccccc1)NS(=O)(=O)Cc1ccc(-c2nc([C@H]3CCCCN3C(=O)COc3ccccc3)cs2)cc1`, for which the IC50 in assay [1] amounted to 2380 nM; in assay [2], 6580 nM; in assay [3], 361 nM; in assay [4] it was 214 nM; in assay [5] it was 2290 nM.

As to `COC(=O)c1cccc(-c2nc([C@H]3CCCCN3C(=O)COc3ccccc3)sc2C)c1`, the IC50 is 59800 nM in assay [1]; over 100000 nM in assay [2]; 632 nM in assay [3]; 305 nM in assay [4]; over 100000 nM in assay [5].

As to `COCCN(c1cc(C(=O)Nc2ccn(CC(=O)O)n2)cc2c1OCO2)S(=O)(=O)c1cc(Cl)ccc1OC`, the IC50 in assay [1] was over 100000 nM; in assay [2], over 100000 nM; in assay [3] it was 792 nM; in assay [4] it was 337 nM; in assay [5] it was 5320 nM.

For `O=C([C@H]1CCCCN1C(=O)COc1ccccc1)N1CCN(c2cc(Cl)cc(Cl)c2)CC1`, the 50% inhibitory concentration (IC50) in assay [1] is 3130 nM; in assay [2], 961 nM; in assay [3], 388 nM; in assay [4] it was 198 nM; in assay [5], over 100000 nM.
